The source of these data is US12275731B2, “Azaindole inhibitors of wild-type and mutant forms of LRRK2” (DANA-FARBER CANCER INSTITUTE, INC., priority 2018, dated 2025).

Common to all, as to experiment: KinomeScan profiling
What all share (format): binding

In one assay the target is T1, ABL2 (Homo sapiens, UniProt P42684).
T1 construct: purchased KinomeScan®
Particulars: ABL2, 1 μM; read-out: % control. The gist of the method:
(§1)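 Normalised RLU (% control; DMSO 100%, positive control 0%) was measured for compounds dosed at 1 μM over 468 kinases, active cut-off <35%.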

The next assay deals with T2, DYRK2 (Homo sapiens, UniProt Q92630).
T2 sequence (Q92630 1-601): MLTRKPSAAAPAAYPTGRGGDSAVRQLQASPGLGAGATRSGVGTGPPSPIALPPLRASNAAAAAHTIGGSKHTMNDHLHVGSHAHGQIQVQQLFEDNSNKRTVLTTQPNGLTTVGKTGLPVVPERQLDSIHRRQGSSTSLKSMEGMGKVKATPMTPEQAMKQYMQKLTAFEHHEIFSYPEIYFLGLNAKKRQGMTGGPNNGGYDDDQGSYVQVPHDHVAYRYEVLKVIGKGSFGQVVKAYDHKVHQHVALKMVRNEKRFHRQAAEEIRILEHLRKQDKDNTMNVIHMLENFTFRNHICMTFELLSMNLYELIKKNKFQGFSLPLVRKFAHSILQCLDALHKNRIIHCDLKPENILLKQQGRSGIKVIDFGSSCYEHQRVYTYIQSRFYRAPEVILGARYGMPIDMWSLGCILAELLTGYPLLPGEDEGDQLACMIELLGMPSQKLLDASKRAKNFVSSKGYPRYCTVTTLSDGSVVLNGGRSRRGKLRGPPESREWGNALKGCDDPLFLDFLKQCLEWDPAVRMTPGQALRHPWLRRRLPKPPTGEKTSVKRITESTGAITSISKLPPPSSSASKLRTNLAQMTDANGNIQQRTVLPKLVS
Conditions: DYRK2, 1 μM; read-out: % control. The procedure, abridged: as §1

A further assay concerns the target ERBB3 (Homo sapiens, UniProt P21860). Conditions: ERBB3, 1 μM; read-out: % control. The gist of the method:
as §1

The next assay addresses ERK4 (Homo sapiens, UniProt P31152). Particulars: ERK4, 1 μM; read-out: % control. The procedure, abridged: as §1
For a further assay, the target named is T3, MAK (Homo sapiens, UniProt P20794).
T3 sequence (P20794 1-623): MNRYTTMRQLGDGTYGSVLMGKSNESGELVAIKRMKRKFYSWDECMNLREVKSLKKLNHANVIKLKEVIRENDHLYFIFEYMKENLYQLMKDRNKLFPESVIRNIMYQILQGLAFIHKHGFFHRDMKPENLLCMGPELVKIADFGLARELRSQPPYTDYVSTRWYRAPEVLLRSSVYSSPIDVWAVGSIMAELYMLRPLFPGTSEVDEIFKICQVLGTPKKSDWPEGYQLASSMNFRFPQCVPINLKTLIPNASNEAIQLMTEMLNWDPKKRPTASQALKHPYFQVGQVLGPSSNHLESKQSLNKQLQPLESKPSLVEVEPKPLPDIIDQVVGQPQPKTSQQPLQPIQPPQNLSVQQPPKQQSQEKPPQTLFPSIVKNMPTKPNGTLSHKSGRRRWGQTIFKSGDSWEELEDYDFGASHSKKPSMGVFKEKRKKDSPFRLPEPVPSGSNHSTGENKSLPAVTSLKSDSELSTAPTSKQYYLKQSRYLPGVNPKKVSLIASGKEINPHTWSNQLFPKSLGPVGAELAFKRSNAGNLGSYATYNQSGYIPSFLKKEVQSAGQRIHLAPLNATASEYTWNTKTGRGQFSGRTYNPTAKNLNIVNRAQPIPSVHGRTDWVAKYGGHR
Particulars: read-out: % control. The procedure, abridged: as §1

In another assay the target is MRCKB (Homo sapiens, UniProt Q9Y5S2). Particulars: read-out: % control. The gist of the method:
as §1

For assay [1], the target named is T4, RPS6KA5(Kin.Dom.2-C-terminal) (Homo sapiens, UniProt O75582).
T4 construct: RPS6KA5(Kin.Dom.2-C-terminal)
T4 sequence (O75582 426-687 limits assumed): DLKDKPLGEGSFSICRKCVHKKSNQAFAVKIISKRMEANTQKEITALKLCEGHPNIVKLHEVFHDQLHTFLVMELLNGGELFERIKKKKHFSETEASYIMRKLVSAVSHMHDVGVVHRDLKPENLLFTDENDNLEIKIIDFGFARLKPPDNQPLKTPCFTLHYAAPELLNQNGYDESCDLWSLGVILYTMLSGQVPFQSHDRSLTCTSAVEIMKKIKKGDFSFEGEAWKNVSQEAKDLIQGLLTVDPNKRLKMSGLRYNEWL
Conditions: read-out: % control. The gist of the method: as §1

The target in the next assay is T5, TAOK3 (Homo sapiens, UniProt Q9H2K8).
T5 sequence (Q9H2K8 1-898): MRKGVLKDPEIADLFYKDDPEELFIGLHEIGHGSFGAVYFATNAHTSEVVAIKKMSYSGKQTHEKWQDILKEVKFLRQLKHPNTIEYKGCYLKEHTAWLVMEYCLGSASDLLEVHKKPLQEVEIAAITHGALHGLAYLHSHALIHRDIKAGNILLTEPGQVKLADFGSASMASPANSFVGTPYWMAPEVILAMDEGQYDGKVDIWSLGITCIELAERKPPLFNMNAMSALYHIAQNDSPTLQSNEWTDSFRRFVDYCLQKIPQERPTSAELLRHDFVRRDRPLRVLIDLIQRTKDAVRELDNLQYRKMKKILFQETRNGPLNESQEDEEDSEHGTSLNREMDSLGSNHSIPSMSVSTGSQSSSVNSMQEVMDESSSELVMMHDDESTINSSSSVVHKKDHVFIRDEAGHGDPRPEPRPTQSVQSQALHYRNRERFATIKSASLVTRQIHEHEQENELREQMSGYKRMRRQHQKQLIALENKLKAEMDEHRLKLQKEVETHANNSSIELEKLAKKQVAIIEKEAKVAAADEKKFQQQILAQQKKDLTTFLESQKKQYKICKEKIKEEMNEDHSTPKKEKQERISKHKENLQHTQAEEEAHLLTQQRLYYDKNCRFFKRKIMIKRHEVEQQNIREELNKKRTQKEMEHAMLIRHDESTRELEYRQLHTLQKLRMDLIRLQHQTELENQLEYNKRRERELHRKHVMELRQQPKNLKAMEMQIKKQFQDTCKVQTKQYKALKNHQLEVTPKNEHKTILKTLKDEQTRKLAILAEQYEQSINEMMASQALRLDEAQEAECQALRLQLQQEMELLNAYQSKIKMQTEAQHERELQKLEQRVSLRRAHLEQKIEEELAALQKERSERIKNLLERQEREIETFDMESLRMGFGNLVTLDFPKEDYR
Particulars: TAOK3, 1 μM; read-out: % control. The procedure, abridged:
as §1

MRCKB, sequence (Q9Y5S2 whole entry): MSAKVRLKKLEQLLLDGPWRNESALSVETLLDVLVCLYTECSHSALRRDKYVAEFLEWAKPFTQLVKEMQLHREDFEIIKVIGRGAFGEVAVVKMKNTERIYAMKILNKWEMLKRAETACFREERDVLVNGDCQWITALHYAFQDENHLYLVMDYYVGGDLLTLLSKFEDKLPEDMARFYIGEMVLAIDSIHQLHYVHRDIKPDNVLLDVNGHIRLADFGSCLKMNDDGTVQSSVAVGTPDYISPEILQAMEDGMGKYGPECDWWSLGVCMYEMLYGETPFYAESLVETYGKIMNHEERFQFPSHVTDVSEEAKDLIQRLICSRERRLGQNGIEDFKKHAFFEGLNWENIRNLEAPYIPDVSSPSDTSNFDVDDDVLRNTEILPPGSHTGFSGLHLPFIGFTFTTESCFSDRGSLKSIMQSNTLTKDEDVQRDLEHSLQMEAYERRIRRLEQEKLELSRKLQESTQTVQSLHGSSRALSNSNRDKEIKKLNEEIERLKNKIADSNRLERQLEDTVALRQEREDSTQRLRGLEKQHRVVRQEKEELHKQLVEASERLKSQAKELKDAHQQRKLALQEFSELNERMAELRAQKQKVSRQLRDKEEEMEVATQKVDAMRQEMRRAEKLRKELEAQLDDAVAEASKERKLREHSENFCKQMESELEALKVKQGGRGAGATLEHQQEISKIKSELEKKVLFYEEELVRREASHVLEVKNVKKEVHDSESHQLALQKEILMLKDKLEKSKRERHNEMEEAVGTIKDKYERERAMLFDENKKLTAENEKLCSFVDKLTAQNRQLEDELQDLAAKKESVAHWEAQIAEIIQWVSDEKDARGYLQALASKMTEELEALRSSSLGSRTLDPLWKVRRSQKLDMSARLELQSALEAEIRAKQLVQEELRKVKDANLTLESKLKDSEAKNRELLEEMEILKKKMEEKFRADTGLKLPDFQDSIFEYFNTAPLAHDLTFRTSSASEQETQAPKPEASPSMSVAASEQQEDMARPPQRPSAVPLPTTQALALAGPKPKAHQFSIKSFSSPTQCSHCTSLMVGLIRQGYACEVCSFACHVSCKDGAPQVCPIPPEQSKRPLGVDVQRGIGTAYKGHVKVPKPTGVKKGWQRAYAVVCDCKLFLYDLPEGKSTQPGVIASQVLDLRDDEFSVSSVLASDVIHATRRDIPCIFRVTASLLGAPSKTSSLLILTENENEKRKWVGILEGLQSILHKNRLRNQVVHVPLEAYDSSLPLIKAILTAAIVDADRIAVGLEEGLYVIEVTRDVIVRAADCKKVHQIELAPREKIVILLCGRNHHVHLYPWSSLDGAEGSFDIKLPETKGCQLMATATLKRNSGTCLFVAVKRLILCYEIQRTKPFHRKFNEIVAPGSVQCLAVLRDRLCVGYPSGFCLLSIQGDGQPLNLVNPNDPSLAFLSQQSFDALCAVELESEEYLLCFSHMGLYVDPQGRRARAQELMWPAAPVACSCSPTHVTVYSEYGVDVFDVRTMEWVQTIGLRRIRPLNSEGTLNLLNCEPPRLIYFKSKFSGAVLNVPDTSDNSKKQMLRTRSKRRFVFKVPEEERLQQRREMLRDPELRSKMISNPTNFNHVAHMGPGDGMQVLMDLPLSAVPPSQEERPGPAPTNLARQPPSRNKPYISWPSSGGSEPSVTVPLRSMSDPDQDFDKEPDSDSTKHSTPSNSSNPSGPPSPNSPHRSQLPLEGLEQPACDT
ERBB3, sequence (P21860 20-1342): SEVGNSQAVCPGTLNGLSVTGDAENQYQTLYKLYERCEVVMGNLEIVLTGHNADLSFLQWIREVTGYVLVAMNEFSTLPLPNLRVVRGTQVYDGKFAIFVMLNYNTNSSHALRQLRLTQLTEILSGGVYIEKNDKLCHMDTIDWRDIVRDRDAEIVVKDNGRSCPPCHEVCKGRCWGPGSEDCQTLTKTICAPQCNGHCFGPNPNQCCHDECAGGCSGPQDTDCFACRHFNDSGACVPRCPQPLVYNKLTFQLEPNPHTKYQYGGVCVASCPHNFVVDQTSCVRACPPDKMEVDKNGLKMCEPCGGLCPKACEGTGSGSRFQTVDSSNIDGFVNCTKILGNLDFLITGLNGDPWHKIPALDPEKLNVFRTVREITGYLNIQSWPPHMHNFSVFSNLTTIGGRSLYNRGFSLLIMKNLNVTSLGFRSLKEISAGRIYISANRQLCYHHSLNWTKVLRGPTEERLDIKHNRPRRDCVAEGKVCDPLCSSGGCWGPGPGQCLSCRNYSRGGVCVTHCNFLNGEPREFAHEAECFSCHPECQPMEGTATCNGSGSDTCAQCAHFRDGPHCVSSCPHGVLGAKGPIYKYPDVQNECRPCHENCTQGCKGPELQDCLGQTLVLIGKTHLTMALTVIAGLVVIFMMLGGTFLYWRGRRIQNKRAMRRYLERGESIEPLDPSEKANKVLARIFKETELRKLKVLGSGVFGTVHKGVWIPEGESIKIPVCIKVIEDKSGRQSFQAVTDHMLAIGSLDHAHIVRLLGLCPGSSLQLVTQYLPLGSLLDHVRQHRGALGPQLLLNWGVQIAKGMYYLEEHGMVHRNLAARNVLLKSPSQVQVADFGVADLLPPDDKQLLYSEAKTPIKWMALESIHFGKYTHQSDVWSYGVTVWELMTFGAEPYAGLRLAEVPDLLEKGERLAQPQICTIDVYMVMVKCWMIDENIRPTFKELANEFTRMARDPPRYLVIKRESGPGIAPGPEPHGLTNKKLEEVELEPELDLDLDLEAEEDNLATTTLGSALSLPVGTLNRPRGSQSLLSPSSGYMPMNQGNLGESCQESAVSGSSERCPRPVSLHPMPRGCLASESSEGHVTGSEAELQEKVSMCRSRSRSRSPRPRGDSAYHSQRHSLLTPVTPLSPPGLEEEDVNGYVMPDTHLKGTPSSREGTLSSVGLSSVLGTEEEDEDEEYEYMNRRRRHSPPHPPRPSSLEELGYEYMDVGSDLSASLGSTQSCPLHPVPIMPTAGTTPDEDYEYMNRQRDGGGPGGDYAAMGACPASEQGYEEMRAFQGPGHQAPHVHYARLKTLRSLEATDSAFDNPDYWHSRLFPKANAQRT
T1 sequence (P42684 whole entry): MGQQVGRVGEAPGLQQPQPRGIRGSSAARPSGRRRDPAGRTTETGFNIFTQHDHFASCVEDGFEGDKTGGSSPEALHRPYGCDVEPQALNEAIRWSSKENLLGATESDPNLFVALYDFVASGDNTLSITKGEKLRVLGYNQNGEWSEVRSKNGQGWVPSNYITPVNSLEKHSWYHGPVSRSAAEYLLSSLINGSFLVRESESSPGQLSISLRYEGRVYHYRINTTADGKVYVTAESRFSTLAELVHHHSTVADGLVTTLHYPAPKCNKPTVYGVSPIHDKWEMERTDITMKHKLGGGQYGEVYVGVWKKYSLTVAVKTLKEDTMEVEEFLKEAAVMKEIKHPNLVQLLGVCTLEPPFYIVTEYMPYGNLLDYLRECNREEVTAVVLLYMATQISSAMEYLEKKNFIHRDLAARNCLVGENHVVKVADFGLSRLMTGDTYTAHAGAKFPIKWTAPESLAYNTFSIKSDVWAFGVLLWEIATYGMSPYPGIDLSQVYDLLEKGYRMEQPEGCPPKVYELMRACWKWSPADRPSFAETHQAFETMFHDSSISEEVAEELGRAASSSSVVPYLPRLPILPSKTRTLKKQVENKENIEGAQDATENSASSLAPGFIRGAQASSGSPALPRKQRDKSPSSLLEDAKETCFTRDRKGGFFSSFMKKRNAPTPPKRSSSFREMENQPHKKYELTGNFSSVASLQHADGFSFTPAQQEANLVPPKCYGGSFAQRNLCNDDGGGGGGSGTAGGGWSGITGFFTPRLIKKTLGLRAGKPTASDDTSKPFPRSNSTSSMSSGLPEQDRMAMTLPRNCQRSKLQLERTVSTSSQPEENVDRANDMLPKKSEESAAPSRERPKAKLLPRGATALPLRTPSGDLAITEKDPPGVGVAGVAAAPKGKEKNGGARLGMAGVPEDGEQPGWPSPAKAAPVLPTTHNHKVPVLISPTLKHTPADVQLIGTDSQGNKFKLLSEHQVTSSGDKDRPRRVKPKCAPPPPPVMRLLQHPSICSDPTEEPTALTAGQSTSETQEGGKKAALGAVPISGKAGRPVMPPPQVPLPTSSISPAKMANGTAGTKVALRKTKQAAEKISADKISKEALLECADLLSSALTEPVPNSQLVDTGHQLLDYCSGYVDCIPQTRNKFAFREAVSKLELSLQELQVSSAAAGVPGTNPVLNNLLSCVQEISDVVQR
ERK4, sequence (P31152 whole entry): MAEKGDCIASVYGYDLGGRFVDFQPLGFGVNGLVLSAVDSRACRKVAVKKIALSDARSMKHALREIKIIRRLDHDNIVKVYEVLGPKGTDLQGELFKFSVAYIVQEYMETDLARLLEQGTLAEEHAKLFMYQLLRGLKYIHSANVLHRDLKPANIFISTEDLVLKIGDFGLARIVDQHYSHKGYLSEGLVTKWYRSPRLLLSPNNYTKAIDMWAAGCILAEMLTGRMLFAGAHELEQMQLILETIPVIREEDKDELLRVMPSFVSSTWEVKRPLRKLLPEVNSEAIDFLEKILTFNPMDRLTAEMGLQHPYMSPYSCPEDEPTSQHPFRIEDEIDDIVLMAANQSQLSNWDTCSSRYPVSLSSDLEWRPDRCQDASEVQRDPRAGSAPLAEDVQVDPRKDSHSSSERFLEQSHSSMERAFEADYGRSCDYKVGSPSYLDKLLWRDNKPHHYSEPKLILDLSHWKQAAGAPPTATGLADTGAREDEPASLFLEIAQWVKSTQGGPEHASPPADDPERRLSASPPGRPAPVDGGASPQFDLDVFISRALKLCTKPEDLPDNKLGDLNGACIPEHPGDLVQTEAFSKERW

Turning to `CNc1c(-c2cnn([C@H]3CCN(C(C)=O)C[C@@H]3F)c2)cnc2[nH]cc(Cl)c12` [Compound 77, 1-((3S,4S)-4-(4-(3-chloro-4-(methylamino)-1H-pyrrolo[2,3-b]pyridin-5-yl)-1H-pyrazol-1-yl)-3-fluoropiperidin-1-yl)ethan-1-one], the remaining binding at 1 µM on ABL2 was found to be 92%; on DYRK2 it was 49%; at ERBB3, 88%; on ERK4, 90%; at MAK, 100%; on MRCKB, 86%. Besides, the remaining binding at 1 µM in assay [1] came to 100%; on TAOK3, 95%.
For the compound `CNc1c(-c2ccc(C(=O)N3CCC(N4CCOCC4)CC3)cc2)cnc2[nH]cc(Cl)c12` [Compound 96, (4-(3-chloro-4-(methylamino)-1H-pyrrolo[2,3-b]pyridin-5-yl)phenyl)(4-morpholinopiperidin-1-yl)methanone], the remaining binding at 1 µM at ABL2 is 100%; at DYRK2, 12%; on ERBB3 it was 86%; on ERK4, 94%; at MAK, 97%; on MRCKB it was 93%. Also, the figures for the remaining binding at 1 µM (in assay [1]; on TAOK3) were 100% and 91%, respectively.
Take `O=C(c1ccc(-c2cnc3[nH]cc(Cl)c3c2NC2CCCC2)cc1)N1CCC(N2CCOCC2)CC1` [Compound 101, (4-(3-chloro-4-(cyclopentylamino)-1H-pyrrolo[2,3-b]pyridin-5-yl)phenyl)(4-morpholinopiperidin-1-yl)methanone]: the remaining binding at 1 µM was 99% at ABL2; 100% at DYRK2; 55% at ERBB3; 93% on ERK4; 87% on MAK; 82% on MRCKB. The remaining binding at 1 µM worked out at 96% in assay [1] and 88% at TAOK3.
